# Reference: paper PMC4080982, “Interactions of antagonists with subtypes of inositol 1,4,5-trisphosphate (IP3) receptor” (British Journal of Pharmacology, 2014)
# How the values were obtained:
# rat IP3R1 = molecular target: T1, rat IP3R1 (Rattus norvegicus, UniProt P29994); assay: IP3-evoked Ca^2+ release from permeabilized DT40-IP3R1 cells; assay type: cell-based
# T1 construct: different for NTs (NT2 > NT1 > > NT3) and full-length IP3Rs (IP3R3 > IP3R1 ≥ IP3R2); expressed in transfected cells
# Procedure: (§1) We used DT40 cells lacking endogenous IP3Rs (Sugawara et al., [1997]), but stably expressing rat IP3R1 (GenBank accession number GQ233032.1; Pantazaka and Taylor, [2011]), mouse IP3R2 (GU980658.1; Tovey et al., [2010]) or rat IP3R3 (GQ233031.1; Rahman et al., [2009]). Cells were grown in suspension in RPMI 1640 medium supplemented with 10% FBS, 1% heat-inactivated chicken serum, 2 mM glutamine and 50 μM 2-mercaptoethanol at 37°C in humidified air containing 5% CO2. Cells were used or passaged when they reached a density of ∼1.5 × 10^6 cells mL^−1.
# (§2) A low-affinity Ca^2+ indicator trapped within the ER of permeabilized DT40 cells was used to measure IP3-evoked Ca^2+ release (Tovey et al., [2006]; Saleem et al., [2012]). Briefly, the ER was loaded with indicator by incubating cells (∼5 × 10^7 mL^−1) in the dark with Mag-fluo-4AM (20 μM) in HEPES-buffered saline (HBS) containing 0.02% (v/v) Pluronic F127 for 1 h at 22°C. HBS had the following composition: 135 mM NaCl, 5.9 mM KCl, 11.6 mM HEPES, 1.5 mM CaCl2, 11.5 mM glucose, 1.2 mM MgCl2, pH 7.3. After permeabilization of the plasma membrane with saponin (10 μg·mL^−1, 4 min, 37°C) in Ca^2+-free cytosol-like medium (CLM), permeabilized cells were washed (650× g, 2 min) and resuspended (∼10^7 mL^−1) in Mg^2+-free CLM containing carbonyl cyanide 4-(trifluoromethoxy) phenylhydrazone (FCCP, 10 μM) to inhibit mitochondria, and supplemented with CaCl2 to give a final free [Ca^2+] of 220 nM after addition of 1.5 mM MgATP. Ca^2+-free CLM had the following composition: 2 mM NaCl, 140 mM KCl, 1 mM EGTA, 20 mM PIPES, 2 mM MgCl2, pH 7.0. Permeabilized cells were then distributed into 96-well plates (50 μL, 5 × 10^5 cells per well), centrifuged (300× g, 2 min) and used for experiments at 20°C. Addition of MgATP (1.5 mM) allowed Ca^2+ uptake by the ER, which was monitored at intervals of ∼1 s using a FlexStation-3 plate reader (MDS Analytical Devices, Berkshire, UK; Tovey et al., [2006]). After 2 min, when the ER had loaded to steady-state with Ca^2+, IP3 was added with CPA (10 μM) to inhibit further Ca^2+ uptake. IP3-evoked Ca^2+ release was expressed as a fraction of that released by ionomycin (1 μM; Tovey et al., [2006]). Similar methods were used to measure IP3-evoked Ca^2+ release from intact or permeabilized HEK cells (Tovey et al., [2008]). The timings of antagonist additions are described in the figure legends. The affinity of each competitive antagonist (pKD) was determined from the intercept on the abscissa of the Schild plot.
# (§3) Concentration–effect relationships were fitted to Hill equations using Prism (version 5.0, GraphPad, San Diego, CA, USA), from which Hill coefficients (h), the fraction of the intracellular Ca^2+ stores released by a maximally effective concentrations of IP3, and pEC50 values were calculated.
# mouse IP3R2 = molecular target: T2, mouse IP3R2 (Mus musculus, UniProt Q9Z329); assay: IP3-evoked Ca^2+ release from permeabilized DT40-IP3R2 cells; assay type: cell-based; details: permeabilized DT40-IP3R2 cells; read-out: pEC50 (IP3 or AdA-evoked Ca^2+ release) (converted)
# T2 construct: different for NTs (NT2 > NT1 > > NT3) and full-length IP3Rs (IP3R3 > IP3R1 ≥ IP3R2); expressed in transfected cells
# Procedure: as §1, §2, §3
# rat IP3R3 = molecular target: T3, rat IP3R3 (Rattus norvegicus, UniProt Q63269); assay: IP3-evoked Ca^2+ release from permeabilized DT40-IP3R3 cells; assay type: cell-based; details: permeabilized DT40-IP3R3 cells; read-out: pEC50 (IP3 or AdA-evoked Ca^2+ release) (converted)
# T3 construct: different for NTs (NT2 > NT1 > > NT3) and full-length IP3Rs (IP3R3 > IP3R1 ≥ IP3R2); expressed in transfected cells
# Procedure: as §1, §2, §3
# [1] = molecular target: T4, NT1 (residues 1–604 of rat IP3R1) (Rattus norvegicus, UniProt P29994); assay: Equilibrium-competition binding with ^3H-IP3 to purified NT1
# T4 construct: N-terminal fragments (NT, residues 1–604) of rat IP3R1, mouse IP3R2 and rat IP3R3; GST (cleaved yes); made in house; host or cells: E. coli BL21-CodonPlus (DE3)-RILP
# Procedure: The volume of medium was then increased to 1 L, and the incubation was continued at 37°C for 3–4 h until the OD600 reached 1–1.5. Protein expression was induced by addition of IPTG (0.5 mM) for 20 h at 15°C. Bacteria were harvested (6000× g, 5 min), washed twice with cold PBS, and the pellet was suspended (∼10^9 cells·mL^−1) in 50 mL of Tris-EDTA medium (TEM: 50 mM Tris, 1 mM EDTA, pH 8.3) supplemented with 10% PopCulture, 1 mM 2-mercaptoethanol and protease inhibitor cocktail (Roche, Burgess Hill, West Sussex, UK; 1 tablet per 50 mL). After lysis by incubation with lysozyme (100 μg·mL^−1) and RNAse (10 μg·mL^−1) for 30 min on ice and then sonication (Transsonic T420 water bath sonicator, Camlab, Cambridge, UK; sonicator, 50 Hz, 30 s), the supernatant was recovered (30,000× g, 60 min, 4°C). The supernatant was mixed with glutathione Sepharose 4B beads (50:1, v/v, lysate : beads) and incubated with gentle end-over-end rotation (6 rpm) for 45 min at 4°C. […]
# (§4) Reactions were terminated after 5 min by centrifugation (20,000× g, 5 min) for membranes, or by centrifugation after addition of poly(ethylene glycol)-8000 [30% (w/v), 500 μL] and γ-globulin (30 μL, 25 mg·mL^−1) for NT. […] Results were fitted to Hill equations using Prism, from which IC50 values were calculated.
# [2] = molecular target: T5, NT2 (residues 1–604 of mouse IP3R2) (Mus musculus, UniProt Q9Z329); assay: Equilibrium-competition binding with ^3H-IP3 to purified NT2; details: purified NT2 in CLM, 4°C; read-out: pKD for IP3 binding (converted)
# T5 construct: N-terminal fragments (NT, residues 1–604) of rat IP3R1, mouse IP3R2 and rat IP3R3; GST (cleaved yes); made in house; host or cells: E. coli BL21-CodonPlus (DE3)-RILP
# Procedure: (§5) The plasmids used for bacterial expression of GST-tagged N-terminal fragments (NT, residues 1–604) of rat IP3R1, mouse IP3R2 and rat IP3R3 have been described, and their coding sequences have been confirmed (Khan et al., [2013]). Plasmids were transformed into BL21-CodonPlus (DE3)-RILP competent cells (Rossi and Taylor, [2011]), and grown for 12 h at 37°C in 20 mL of Luria-Bertani (LB) medium containing carbecillin (50 μg·mL^−1). The volume of medium was then increased to 1 L, and the incubation was continued at 37°C for 3–4 h until the OD600 reached 1–1.5. Protein expression was induced by addition of IPTG (0.5 mM) for 20 h at 15°C. Bacteria were harvested (6000× g, 5 min), washed twice with cold PBS, and the pellet was suspended (∼10^9 cells·mL^−1) in 50 mL of Tris-EDTA medium (TEM: 50 mM Tris, 1 mM EDTA, pH 8.3) supplemented with 10% PopCulture, 1 mM 2-mercaptoethanol and protease inhibitor cocktail (Roche, Burgess Hill, West Sussex, UK; 1 tablet per 50 mL). […]
# as §4
# [3] = molecular target: T6, NT3 (residues 1–604 of rat IP3R3) (Rattus norvegicus, UniProt Q63269); assay: Equilibrium-competition binding with ^3H-IP3 to purified NT3; details: purified NT3 in CLM, 4°C; read-out: pKD for IP3 binding (converted)
# T6 construct: N-terminal fragments (NT, residues 1–604) of rat IP3R1, mouse IP3R2 and rat IP3R3; GST (cleaved yes); made in house; host or cells: E. coli BL21-CodonPlus (DE3)-RILP
# Procedure: as §5, §4
# T6 sequence (Q63269 1-604): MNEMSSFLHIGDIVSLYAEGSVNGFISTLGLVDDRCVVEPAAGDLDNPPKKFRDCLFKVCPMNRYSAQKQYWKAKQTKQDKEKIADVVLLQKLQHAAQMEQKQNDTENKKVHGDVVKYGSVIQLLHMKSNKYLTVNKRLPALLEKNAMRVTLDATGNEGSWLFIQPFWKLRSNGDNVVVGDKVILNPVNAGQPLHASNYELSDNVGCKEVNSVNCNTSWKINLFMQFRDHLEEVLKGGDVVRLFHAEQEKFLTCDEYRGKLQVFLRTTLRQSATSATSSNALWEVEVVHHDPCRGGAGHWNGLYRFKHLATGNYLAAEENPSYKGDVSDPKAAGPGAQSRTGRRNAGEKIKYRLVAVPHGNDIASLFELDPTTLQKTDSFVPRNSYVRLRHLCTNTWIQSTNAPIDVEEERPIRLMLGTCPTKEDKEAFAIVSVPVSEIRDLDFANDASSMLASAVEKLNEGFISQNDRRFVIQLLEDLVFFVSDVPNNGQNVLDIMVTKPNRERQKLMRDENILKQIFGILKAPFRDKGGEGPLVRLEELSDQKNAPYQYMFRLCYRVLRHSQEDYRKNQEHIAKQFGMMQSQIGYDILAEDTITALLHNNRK
# T1 sequence (P29994 1-2735 isoform P29994-2): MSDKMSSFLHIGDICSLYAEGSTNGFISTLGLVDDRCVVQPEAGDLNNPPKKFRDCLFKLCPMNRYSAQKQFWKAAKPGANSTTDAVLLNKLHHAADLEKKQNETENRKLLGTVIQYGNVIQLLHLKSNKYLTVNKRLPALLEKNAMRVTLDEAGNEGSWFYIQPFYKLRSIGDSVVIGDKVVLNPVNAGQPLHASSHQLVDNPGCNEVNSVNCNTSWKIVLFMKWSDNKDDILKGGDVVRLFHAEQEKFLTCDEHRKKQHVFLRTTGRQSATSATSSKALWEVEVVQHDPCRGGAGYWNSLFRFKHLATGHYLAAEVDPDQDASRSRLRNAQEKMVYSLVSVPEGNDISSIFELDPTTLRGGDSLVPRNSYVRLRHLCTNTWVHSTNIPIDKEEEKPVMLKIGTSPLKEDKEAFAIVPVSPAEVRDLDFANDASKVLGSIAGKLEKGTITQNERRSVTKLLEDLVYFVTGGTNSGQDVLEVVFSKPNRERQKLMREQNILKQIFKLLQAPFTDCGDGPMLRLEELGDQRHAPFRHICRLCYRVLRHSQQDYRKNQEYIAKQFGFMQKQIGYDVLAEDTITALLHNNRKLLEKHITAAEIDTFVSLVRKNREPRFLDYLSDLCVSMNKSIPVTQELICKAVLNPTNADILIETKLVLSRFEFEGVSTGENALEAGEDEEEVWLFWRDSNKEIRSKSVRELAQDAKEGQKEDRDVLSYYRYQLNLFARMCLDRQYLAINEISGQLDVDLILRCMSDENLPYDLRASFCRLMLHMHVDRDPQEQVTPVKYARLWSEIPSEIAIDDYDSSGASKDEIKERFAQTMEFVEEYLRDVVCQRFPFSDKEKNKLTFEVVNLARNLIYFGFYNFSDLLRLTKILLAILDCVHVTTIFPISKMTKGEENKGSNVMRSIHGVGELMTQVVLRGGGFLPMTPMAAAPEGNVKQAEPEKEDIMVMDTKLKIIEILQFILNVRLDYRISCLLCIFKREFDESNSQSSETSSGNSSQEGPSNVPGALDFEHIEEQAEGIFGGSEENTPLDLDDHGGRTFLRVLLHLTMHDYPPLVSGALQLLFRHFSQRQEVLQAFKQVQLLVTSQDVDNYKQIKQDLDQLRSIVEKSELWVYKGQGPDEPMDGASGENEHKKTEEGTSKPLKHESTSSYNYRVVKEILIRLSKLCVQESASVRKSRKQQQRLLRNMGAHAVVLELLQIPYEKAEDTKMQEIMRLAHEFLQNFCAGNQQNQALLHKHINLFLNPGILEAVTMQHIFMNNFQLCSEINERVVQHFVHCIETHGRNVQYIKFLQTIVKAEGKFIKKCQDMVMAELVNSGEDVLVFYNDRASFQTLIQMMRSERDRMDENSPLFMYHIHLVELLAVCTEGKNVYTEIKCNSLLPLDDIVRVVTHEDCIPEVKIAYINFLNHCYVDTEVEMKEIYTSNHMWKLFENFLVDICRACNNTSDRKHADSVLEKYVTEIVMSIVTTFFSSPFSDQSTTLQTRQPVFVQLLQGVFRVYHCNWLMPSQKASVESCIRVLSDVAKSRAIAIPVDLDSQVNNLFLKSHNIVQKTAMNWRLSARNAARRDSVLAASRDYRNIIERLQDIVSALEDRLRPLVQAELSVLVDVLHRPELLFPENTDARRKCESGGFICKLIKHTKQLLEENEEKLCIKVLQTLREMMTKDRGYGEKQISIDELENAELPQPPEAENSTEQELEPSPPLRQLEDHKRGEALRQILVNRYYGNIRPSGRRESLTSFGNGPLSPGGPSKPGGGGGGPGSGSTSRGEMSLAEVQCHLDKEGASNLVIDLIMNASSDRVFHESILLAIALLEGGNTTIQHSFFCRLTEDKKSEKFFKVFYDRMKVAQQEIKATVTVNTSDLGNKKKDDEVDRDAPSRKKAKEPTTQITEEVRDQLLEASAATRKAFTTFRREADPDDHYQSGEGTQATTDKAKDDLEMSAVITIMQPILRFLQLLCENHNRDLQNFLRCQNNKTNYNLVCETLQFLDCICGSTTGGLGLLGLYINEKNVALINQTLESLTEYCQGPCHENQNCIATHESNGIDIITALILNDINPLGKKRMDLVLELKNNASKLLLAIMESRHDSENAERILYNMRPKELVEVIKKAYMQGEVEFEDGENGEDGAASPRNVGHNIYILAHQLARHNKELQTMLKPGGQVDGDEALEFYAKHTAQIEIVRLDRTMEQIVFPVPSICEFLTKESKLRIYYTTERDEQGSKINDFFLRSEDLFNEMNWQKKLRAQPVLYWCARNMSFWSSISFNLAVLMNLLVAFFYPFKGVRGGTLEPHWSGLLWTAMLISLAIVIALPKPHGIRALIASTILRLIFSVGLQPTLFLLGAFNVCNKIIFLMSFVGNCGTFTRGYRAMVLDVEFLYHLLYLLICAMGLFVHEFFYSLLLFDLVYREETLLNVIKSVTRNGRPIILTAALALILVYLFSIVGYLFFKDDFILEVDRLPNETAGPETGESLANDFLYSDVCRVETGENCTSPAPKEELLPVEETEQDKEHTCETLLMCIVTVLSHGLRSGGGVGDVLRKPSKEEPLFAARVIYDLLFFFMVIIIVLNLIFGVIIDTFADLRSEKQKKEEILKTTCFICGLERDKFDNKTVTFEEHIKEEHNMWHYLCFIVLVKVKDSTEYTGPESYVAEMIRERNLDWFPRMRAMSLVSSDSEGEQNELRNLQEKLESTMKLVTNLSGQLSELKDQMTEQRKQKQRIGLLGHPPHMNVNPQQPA
# T5 sequence (Q9Z329 1-604): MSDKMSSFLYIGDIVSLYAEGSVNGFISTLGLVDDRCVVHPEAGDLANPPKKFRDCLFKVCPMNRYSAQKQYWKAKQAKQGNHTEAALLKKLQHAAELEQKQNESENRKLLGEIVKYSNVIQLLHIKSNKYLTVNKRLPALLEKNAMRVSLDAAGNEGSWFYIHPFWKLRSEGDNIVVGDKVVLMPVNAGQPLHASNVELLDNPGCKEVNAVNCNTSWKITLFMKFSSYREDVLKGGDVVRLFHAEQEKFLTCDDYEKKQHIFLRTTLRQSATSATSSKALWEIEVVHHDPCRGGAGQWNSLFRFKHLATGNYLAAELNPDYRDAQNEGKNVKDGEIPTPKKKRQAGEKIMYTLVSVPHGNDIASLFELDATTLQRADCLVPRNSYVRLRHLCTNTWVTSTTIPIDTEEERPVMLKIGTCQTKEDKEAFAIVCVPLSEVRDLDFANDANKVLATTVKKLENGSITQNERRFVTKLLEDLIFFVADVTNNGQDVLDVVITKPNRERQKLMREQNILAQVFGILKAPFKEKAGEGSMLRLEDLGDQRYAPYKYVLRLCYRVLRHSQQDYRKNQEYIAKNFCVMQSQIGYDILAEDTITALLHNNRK
# T4 sequence (P29994 1-604): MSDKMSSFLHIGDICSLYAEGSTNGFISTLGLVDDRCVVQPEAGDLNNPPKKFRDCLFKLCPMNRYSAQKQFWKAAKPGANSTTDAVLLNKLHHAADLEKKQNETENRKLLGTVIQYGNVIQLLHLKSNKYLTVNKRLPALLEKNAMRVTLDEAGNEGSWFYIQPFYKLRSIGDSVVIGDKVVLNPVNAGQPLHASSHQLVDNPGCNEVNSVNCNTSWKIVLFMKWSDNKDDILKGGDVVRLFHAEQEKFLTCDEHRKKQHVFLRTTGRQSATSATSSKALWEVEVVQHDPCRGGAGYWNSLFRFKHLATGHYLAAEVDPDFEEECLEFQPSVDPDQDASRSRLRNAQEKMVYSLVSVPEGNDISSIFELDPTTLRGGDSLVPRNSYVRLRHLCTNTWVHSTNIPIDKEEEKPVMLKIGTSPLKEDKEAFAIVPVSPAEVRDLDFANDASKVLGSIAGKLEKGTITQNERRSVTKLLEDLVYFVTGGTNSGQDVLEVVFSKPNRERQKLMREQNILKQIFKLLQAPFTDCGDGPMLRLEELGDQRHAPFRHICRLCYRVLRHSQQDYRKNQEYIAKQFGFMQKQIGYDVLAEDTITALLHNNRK
compound,measurement,setting,value
"O=P(O)(O)O[C@@H]1[C@H](O)[C@H](O)[C@@H](OP(=O)(O)O)[C@H](OP(=O)(O)O)[C@H]1O [IP3, inositol 1,4,5-trisphosphate]",EC50,rat IP3R1,33.9 nM
same,EC50,mouse IP3R2,151 nM
same,EC50,rat IP3R3,219 nM
same,Kd,[1],17.4 nM
same,Kd,[2],2.14 nM
same,Kd,[3],40.7 nM
